From patent EP0508511B1 (KNOLL AG, priority 1991, dated 1992)

Test system: wacher normotoner Hunde
Experiment: Diastolic blood pressure in conscious normotensive dogs
Format: in vivo
Conditions: Trandolapril alone, 3 mg/kg/Tag

## CCOC(=O)[C@H](CCc1ccccc1)N[C@@H](C)C(=O)N1[C@H](C(=O)O)C[C@H]2CCCC[C@@H]21 [Trandolapril, N-(1s-Carbethoxy-3-phenylpropyl)-S-alanyl-2S,3aR,7aS-octa-hydroindol-2-carbonsäure]
  Senkung des diastolischen Blutdruckes: weder Verapamil-SR allein (10 mg/kg/Tag) noch Trandolapril allein (3 mg/kg/Tag) den diastolischen Blutdruck wacher normotoner Hunde zu senken vermögen
